Source: US6124263A, “Treatment of tumors by administration of growth hormone releasing compounds and their antagonists” (Asta Medica AG, priority 1998, dated 2000)
pEC50: −log10 of the molar value. Numbered stars: 1 amine (or outer) side, 2 acyl side, 3 side chain; on linkers, the order of the positions; unused ones are H or OH. Square brackets hold non-standard residues; d marks the D form. Peptide text beside a SMILES is read from it. Haic = O=C1[C@@H](N[*:1])CCc2cccc3c2N1[C@H](C(=O)[*:2])C3; dTrp(2-Me) = Cc1[nH]c2ccccc2c1C[C@@H](N)C(=O)O

Legend:
[1] = test system: GHRP receptors; test: GHRP receptor assay: 125I-Tyr-Ala-Hexarelin binding to tumor membranes; parameters: species or system human; settings: for competition with 125I-Tyr-Ala-Hexarelin for the tumoral binding sites (displacement of radiotracer binding): membranes of a non-endocrine carcinoma of lung origin, FIG. 3
Experimental: Surgical tumor specimens were collected from the Department of Biomedical Sciences and Human Oncology (Division of Pathology) of the University of Turin. A tumor fragment adjacent to that used for histopathological diagnosis was immediately frozen at -80° C. and stored for 2 to 60 months until further processed for binding studies. Samples of 13 invasive breast carcinoma (10 ductal and 3 lobular), 14 non-endocrine lung carcinomas (5 squamous cell and 9 adenocarcinomas), 11 endocrine tumors of the lung, 9 endocrine tumors of the pancreas and 12 thyroid carcinomas (7 of follicular origin and 5 of medullary origin) were used. Non-neoplastic normal tissues of the corresponding organs were also analysed in parallel with the individual tumors.
GHRP receptors were measured on tumor membranes as described in G. Muccioli et al., Journal of Endocrinology, 157, 99-106, 1998, using ^125 I-Tyr-Ala-Hexarelin as a ligand. Specific binding was calculated as the difference between binding in the absence and in the presence of excess unlabelled Tyr-Ala-Hexarelin and expressed as a percentage of the radioactivity added. Saturation and competition binding studies were analyzed with the GraphPAD Prism 2 program (GraphPAD Software, San Diego, Calif., USA).

[2] = test system: Human lung carcinoma cells (CaLu1); format: cell-based; settings: for effect on basal and EGF-stimulated 3H-thymidine incorporation: 10-6 mol/l compound, 20 h + 4 h incubation, FIG. 4; for pEC50: 3 h
Experimental: Human lung carcinoma cells (CaLu1), T47D and MDA-MB231, respectively, human oestrogen dependent and oestrogen independent breast cancer cell lines were purchased from the ATCC (Rockville, Md., USA). Cells were routinely cultured in […] flasks at 37° C., 5% CO2 and 95% humidified atmosphere in RPMI supplemented with 10% FCS, penicillin-streptomycin and fungizone. When a subconfluent state was reached, cells were detached from the flasks with trypsin/EDTA. DNA synthesis was evaluated by ^3 H-thymidine incorporation as described in G. Muccioli et al., Journal of Endocrinology, 153, 365-371, 1997. […] After incubation for 20 hours, ^3 H-thymidine was added and incubation was continued for a further 4 hours. The reaction was halted and the cells were harvested onto glass-fiber filter strips. Incorporation of ^3 H-thymidine was measured in a scintillation counter.

[3] = test system: Human lung carcinoma cells (CaLu1); test: Cell growth study (cell count), human lung carcinoma cells; format: cell-based; settings: FIG. 6
Experimental: (§1) Human lung carcinoma cells (CaLu1), T47D and MDA-MB231, respectively, human oestrogen dependent and oestrogen independent breast cancer cell lines were purchased from the ATCC (Rockville, Md., USA). Cells were routinely cultured in […] flasks at 37° C., 5% CO2 and 95% humidified atmosphere in RPMI supplemented with 10% FCS, penicillin-streptomycin and fungizone. When a subconfluent state was reached, cells were detached from the flasks with trypsin/EDTA. Cell growth studies were carried out as described in P.Cassoni et al., Virchows Archiv, 425, 467-472, 1994. Cells were seeded in triplicate in 24-multiwell plates at a density of 5,000-10,000 cells/ml. Twenty-four hours after plating the medium was changed. Hexarelin or Ala-Hexarelin were added where requested at concentrations ranging from 10^-8 to 10^-6 mol/l. The medium was changed every 48 hours. Cells were counted at 48 and 72 or 96 hours of treatment in a double blind analysis by two independent investigators using a haemocytometer.

[4] = test system: human breast cancer T47D cells; test: Cell growth study (cell count), T47D cells; format: cell-based; settings: FIG. 7a
Experimental: as §1

[5] = test system: human breast cancer MDA-MB231 cells; test: Cell growth study (cell count), MDA-MB231 cells; format: cell-based; settings: FIG. 8a
Experimental: as §1

[6] = 10^-7 mol/l and 10^-6 mol/l, any time point tested

Cc1[nH]c2ccccc2c1C[C@@H](NC(=O)[C@@H](N)Cc1cnc[nH]1)C(=O)N[C@@H](C)C(=O)N[C@@H](Cc1c[nH]c2ccccc12)C(=O)N[C@H](Cc1ccccc1)C(=O)N[C@@H](CCCCN)C(N)=O [Hexarelin, His-D-Mrp-Ala-Trp-D-Phe-Lys-NH2] (H-H[dTrp(2-Me)]AW[dF]K-NH2)
competition with 125I-Tyr-Ala-Hexarelin for the tumoral binding sites (displacement of radiotracer binding) [1]: displaced in a dose-dependent fashion | effect on basal and EGF-stimulated 3H-thymidine incorporation ([2]; EGF 1 ng/ml): able to inhibit both basal and the EGF-stimulated | inhibition of the proliferative effect of EGF with increasing concentrations ([2]; 10^-8 to 10^-6 mol/l, EGF 1 ng/ml, FIG. 5): inhibited in a dose-dependent fashion | pEC50 [2]: 7.10 | decrease in cell number compared with control at higher concentrations [3, 6]: further increased | decrease in cell number compared with control ([3]; 10^-8 mol/l, after 96 hours): -47% | decrease in cell number compared with control at higher concentrations [4, 6]: further increased | decrease in cell number compared with control ([4]; 10^-8 mol/l, after 96 hours): -54% | decrease in cell number compared with control at higher concentrations [5, 6]: further increased | decrease in cell number compared with control ([5]; 10^-8 mol/l, after 72 hours): -33%

CC(C)(N)C(=O)N[C@H](COCc1ccccc1)C(=O)N1CCC2(CC1)CN(S(C)(=O)=O)c1ccccc12 [MK0677, reference compound]
competition with 125I-Tyr-Ala-Hexarelin for the tumoral binding sites (displacement of radiotracer binding) [1]: negligible displacement | effect on basal and EGF-stimulated 3H-thymidine incorporation ([2]; EGF 1 ng/ml): slight inhibition

C[C@H](N)C(=O)NCC(=O)N[C@H]1CSSC[C@@H](C(=O)O)NC(=O)[C@H](CO)NC(=O)[C@H]([C@@H](C)O)NC(=O)[C@H](Cc2ccccc2)NC(=O)[C@H]([C@@H](C)O)NC(=O)[C@H](CCCCN)NC(=O)[C@H](Cc2c[nH]c3ccccc23)NC(=O)[C@H](Cc2ccccc2)NC(=O)[C@H](Cc2ccccc2)NC(=O)[C@H](CC(N)=O)NC(=O)[C@H](CCCCN)NC1=O [somatostatin]
competition with 125I-Tyr-Ala-Hexarelin for the tumoral binding sites (displacement of radiotracer binding) [1]: no competition

^125 I-Tyr-Ala-His-D-Mrp-Ala-Trp-D-Phe-Lys-NH2 [^125 I-Tyr-Ala-Hexarelin]
binding of 125I-Tyr-Ala-Hexarelin to tumor membranes as a function of radioligand concentration (saturation, Scatchard) ([1]; non-endocrine carcinoma of lung origin, FIG. 2): saturable specific binding

Cc1[nH]c2ccccc2c1C[C@@H](NC(=O)[C@H](Cc1c[nH]cn1)NC(=O)[C@H](C)NC(=O)[C@@H](N)Cc1ccc(O)cc1)C(=O)N[C@@H](C)C(=O)N[C@@H](Cc1c[nH]c2ccccc12)C(=O)N[C@H](Cc1ccccc1)C(=O)N[C@@H](CCCCN)C(N)=O [Tyr-Ala-Hexarelin, Tyr-Ala-His-D-Mrp-Ala-Trp-D-Phe-Lys-NH2] (H-YAH[dTrp(2-Me)]AW[dF]K-NH2)
pEC50 [2]: 7.19

Cc1[nH]c2ccccc2c1C[C@@H](NC(=O)[C@H](Cc1c[nH]cn1)NC(=O)[C@H](C)N)C(=O)N[C@@H](C)C(=O)N[C@@H](Cc1c[nH]c2ccccc12)C(=O)N[C@H](Cc1ccccc1)C(=O)N[C@@H](CCCCN)C(N)=O [Ala-Hexarelin, Ala-His-D-Mrp-Ala-Trp-D-Phe-Lys-NH2] (H-AH[dTrp(2-Me)]AW[dF]K-NH2)
pEC50 [2]: 7.00

GHRH: Human GHRH (GHRH 1-44) purchased from Bachem
competition with 125I-Tyr-Ala-Hexarelin for the tumoral binding sites (displacement of radiotracer binding) [1]: no competition

Cc1[nH]c2ccccc2c1C[C@@H](NC(=O)[C@@H]1Cc2cccc3c2N1C(=O)[C@@H](N)CC3)C(=O)N[C@H](CCCCN)C(=O)N[C@@H](Cc1c[nH]c2ccccc12)C(=O)N[C@H](Cc1ccccc1)C(=O)N[C@@H](CCCCN)C(N)=O [EP80317, HAIC-D-Mrp-D-Lys-Trp-D-Phe-Lys-NH2] (Haic-[dTrp(2-Me)][dK]W[dF]K-NH2)
pEC50 [2]: 7.25

NCCCC[C@H](NC(=O)[C@@H](Cc1ccccc1)NC(=O)[C@H](Cc1c[nH]c2ccccc12)NC(=O)[C@@H](CCCCN)NC(=O)[C@@H](Cc1c[nH]c2ccccc12)NC(=O)[C@@H](N)Cc1c[nH]cn1)C(N)=O [(D-Lys)3 -GHRP6, His-D-Trp-D-Lys-Trp-D-Phe-Lys-NH2] (H-H[dW][dK]W[dF]K-NH2)
pEC50 [2]: 7.05
